Results: patent US20210330611A1, “THERAPY FOR NEUROLOGICAL DISEASES/DISORDERS” (priority 2020, published 2021)
Where a name gives a salt, the structure may show the parent alone. Read-outs that look alike come from different tables or passages of the source.

Legend:
primary rat microglia [1] = test: Cell toxicity (dead cells, size <150 μm2) in coated fibrin (cFib) assay; details: primary microglia HTS;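 also: share of dead cells sized under 150 µm2 at 10 µM in fibrin-stimulated microglia HTS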
[2] = tested on: fibrin-induced microglia activation; test: Image-based assay of fibrin-induced microglia activation (HTS and dose response); type: cell-based, rat; details: primary microglia HTS, fibrin stimulation; for inhibition at 10 µM: Rattus norvegicus, Microglia, read-out: Fibrin % inhibition
primary rat microglia [3] = tested on: primary rat microglia
[4] = tested on: fibrin- and LPS-induced microglia activation; test: cells; type: cell-based, rat
[5] = tested on: LPS-induced microglia activation; test: Image-based assay of LPS-induced microglia activation (HTS and dose response); type: cell-based, rat; details: for inhibition at 10 µM: Rattus norvegicus, Microglia, read-out: LPS % inhibition
[6] = fibrin assay, dead cells (size <150 μm2), compounds at 10 μM
[7] = classification by fibrin and LPS inhibition, HTS at 10 μM
[8] = primary microglia HTS, LPS stimulation, compounds at 10 μM
[9] = fibrin stimulation, cell size <150 μm2 as marker of toxicity
[10] = cell size >800 μm2 as marker of activation
[11] = classification by fibrin and LPS inhibition in HTS
[12] = primary microglia HTS, LPS stimulation, compounds at 10 μM, 10 µM
[13] = fibrin assay, dead cells (size <150 μm2)
[14] = quadrant by fibrin and LPS inhibition, HTS at 10 μM

Compound | Fibrin % cell toxicity (primary rat microglia [1]; [6]) | Quadrant (FIG. 5b) [4, 7] | Fibrin % cell toxicity (primary rat microglia [1]; [9]) | LPS % cell toxicity (primary rat microglia [3]; rat) | Quadrant (FIG. 5b) [4, 11] | inhibition at 10 µM ([2]; compounds at 10 μM) | inhibition at 10 µM [5, 8] | Fibrin % cell toxicity (primary rat microglia [1]; [13]) | Quadrant (FIG. 5b) [4, 14] | further results
CO[C@H]1C[C@H](O[C@H]2[C@H](C)O[C@@H](O[C@@H]3/C(C)=C/C[C@@H]4C[C@@H](C[C@]5(C=C[C@H](C)[C@@H](C6CCCCC6)O5)O4)OC(=O)[C@@H]4C=C(C)[C@@H](O)[C@H]5OC/C(=C\C=C\[C@@H]3C)[C@]54O)C[C@@H]2OC)O[C@@H](C)[C@@H]1O [Doramectin] | 1% | Q4 | – | – | – | – | – | – | – | Fibrin % inhibition ([2]; compounds at 10 μM): −9%; LPS % cell toxicity (primary rat microglia [3]): 0%; LPS % inhibition [5, 8]: 7%
CN(C)C(=O)Oc1ccc[n+](C)c1 [Pyridostigmine] | – | – | 1% | 0% | Q4 | – | – | – | – | inhibition at 10 µM [2, 10]: 4%; inhibition at 10 µM ([5]; 48 h): 9%
C[C@@H](CO)NC(=O)[C@@H]1C=C2c3cccc4[nH]cc(c34)C[C@H]2N(C)C1 [Ergonovine] | 1% | Q4 | – | 0% | – | – | – | – | – | Fibrin % inhibition ([2]; compounds at 10 μM, 10 µM): −23%; LPS % inhibition [5, 12]: −10%
COc1cc2nc(N3CCN(C(=O)C4COc5ccccc5O4)CC3)nc(N)c2cc1OC (stereo not shown) [Doxazosin] | 0% | Q4 | – | 0% | – | -26% | 6% | – | – | –
CO[C@H]1/C=C/O[C@@]2(C)Oc3c(C)c(O)c4c(O)c(c(/C=N/N5CCN(C6CCCC6)CC5)c(O)c4c3C2=O)NC(=O)/C(C)=C\C=C\[C@H](C)[C@H](O)[C@@H](C)[C@@H](O)[C@@H](C)[C@H](OC(C)=O)[C@@H]1C [Rifapentine] | – | – | 1% | 0% | Q4 | – | – | – | – | inhibition at 10 µM [2, 10]: -23%; inhibition at 10 µM ([5]; 48 h): -7%
CCOc1nc2cccc(C(=O)OCc3oc(=O)oc3C)c2n1Cc1ccc(-c2ccccc2-c2noc(=O)[nH]2)cc1 [Azilsartan medoxomil] | – | – | – | 1% | – | 5% | 31% | 0% | Q4 | –
CC(C)c1c(CN(C)C(C)Cc2ccccc2)n(C)n(-c2ccccc2)c1=O (stereo not shown) [Famprofazone] | 1% | Q4 | – | 0% | – | -3% | 15% | – | – | –
CN1CCC(=C2c3ccccc3Sc3ccccc32)CC1 [Pimethixene Maleate] | – | – | – | 2% | – | 112% | 92% | 6% | Q2 | –
Nc1nc2c(ncn2CCC(CO)CO)c(=O)[nH]1 [Penciclovir] | – | – | 1% | 0% | Q4 | – | – | – | – | inhibition at 10 µM [2, 10]: -44%; inhibition at 10 µM ([5]; 48 h): 4%
Oc1c(I)cc(I)c2cccnc12 [Diiodohydroxyquinoline] | 1% | Q4 | – | 0% | – | -6% | 22% | – | – | –
CC(=O)Nc1ccc(C(=O)O)cc1 [4-acetamidobenzoic acid] | – | – | – | 0% | – | 32% | 42% | 1% | Q4 | –
CC1(C)O[C@@H]2C[C@H]3[C@@H]4CCC5=CC(=O)C=C[C@]5(C)[C@@]4(F)[C@@H](O)C[C@]3(C)[C@]2(C(=O)CO)O1 [Triamcinolone Acetonide] | – | – | – | 4% | – | 111% | 104% | 4% | Q2 | –
CC1(C)C(C=C(Cl)Cl)C1C(=O)OC(C#N)c1cccc(Oc2ccccc2)c1 (stereo not drawn) [Alpha-cypermethrin] | – | – | – | 0% | – | -15% | 11% | 1% | Q4 | –
O=C1OC(c2ccc(O)cc2)(c2ccc(O)cc2)c2ccccc21 [Phenolphthalein] | – | – | 1% | 0% | Q4 | – | – | – | – | inhibition at 10 µM [2, 10]: 10%; inhibition at 10 µM ([5]; 48 h): 13%
COc1ccc(-c2cc(C(F)F)nn2-c2ccc(S(N)(=O)=O)cc2)cc1F [Deracoxib] | 0% | Q4 | – | 0% | – | -34% | 8% | – | – | –
CCn1cc(C(=O)O)c(=O)c2cnc(N3CCCC3)nc21 [Piromidic Acid] | – | – | 1% | 0% | Q4 | – | – | – | – | inhibition at 10 µM [2, 10]: -30%; inhibition at 10 µM ([5]; 48 h): 7%

Compound | Fibrin % cell toxicity (primary rat microglia [1]; [6]) | Quadrant (FIG. 5b) [4, 7] | Fibrin % cell toxicity (primary rat microglia [1]; [9]) | LPS % cell toxicity (primary rat microglia [3]; rat) | Quadrant (FIG. 5b) [4, 11] | inhibition at 10 µM ([2]; compounds at 10 μM) | inhibition at 10 µM [5, 8] | Fibrin % cell toxicity (primary rat microglia [1]; [13]) | Quadrant (FIG. 5b) [4, 14] | further results
NCC(CC(=O)O)c1ccc(Cl)cc1 (racemic) [(±)-baclofen, Baclofen] | – | – | – | – | – | – | – | 0% | Q4 | Fibrin % inhibition ([2]; compounds at 10 μM): −8%; LPS % cell toxicity (primary rat microglia [3]): 0%; LPS % inhibition [5, 8]: 9%
CCCCCCCCCC(=O)N[C@@H](Cc1c[nH]c2ccccc12)C(=O)N[C@@H](CC(N)=O)C(=O)N[C@@H](CC(=O)O)C(=O)N[C@@H]1C(=O)NCC(=O)N[C@@H](CCCN)C(=O)N[C@@H](CC(=O)O)C(=O)N[C@H](C)C(=O)N[C@@H](CC(=O)O)C(=O)NCC(=O)N[C@H](CO)C(=O)N[C@@H]([C@H](C)CC(=O)O)C(=O)N[C@@H](CC(=O)c2ccccc2N)C(=O)O[C@@H]1C [Daptomycin (5 Millimolar/dmso)] | 1% | Q4 | – | – | – | – | – | – | – | Fibrin % inhibition ([2]; compounds at 10 μM): −6%; LPS % cell toxicity (primary rat microglia [3]): 0%; LPS % inhibition [5, 8]: 17%
CN1CCN(C(c2ccccc2)c2ccccc2)CC1 [Cyclizine] | 0% | Q4 | – | 1% | – | -23% | 34% | – | – | –
CC/C=C\C/C=C\C/C=C\C/C=C\C/C=C\C/C=C\CCC(=O)O [Doconexent] | 1% | Q4 | – | 0% | – | 3% | 11% | – | – | –
COc1ccc(C(=O)CC(=O)c2ccc(C(C)(C)C)cc2)cc1 [Avobenzone] | – | – | – | 0% | – | 22% | 20% | 1% | Q4 | –
CC[C@H](C)C(=O)O[C@H]1C[C@H](O)C=C2C=C[C@H](C)[C@H](CC[C@@H](O)C[C@@H](O)CC(=O)O)[C@H]21 [Pravastatin Sodium] | – | – | 1% | 0% | Q4 | – | – | – | – | Fibrin % inhibition [2, 10]: 21%; LPS % inhibition [5]: 11%
CCN(CC)CCOC(=O)C(c1ccccc1)c1ccccc1 [Adiphenine Hydrochloride] | – | – | – | 0% | – | -30% | 12% | 1% | Q4 | –
O=C(O)CCc1nc2ccccc2[nH]1 [Procodazole] | – | – | 1% | 0% | Q4 | – | – | – | – | inhibition at 10 µM [2, 10]: -15%; inhibition at 10 µM ([5]; 48 h): 15%
C[C@H](CCC(=O)O)[C@H]1CC[C@H]2[C@@H]3C(=O)C[C@@H]4CC(=O)CC[C@]4(C)[C@H]3CC(=O)[C@]12C [Dehydrocholic Acid] | 1% | Q4 | – | 0% | – | -30% | 7% | – | – | –
CC1(C)S[C@@H]2[C@H](NC(=O)[C@H](N)c3ccccc3)C(=O)N2[C@H]1C(=O)O [Ampicillin] | – | – | – | 0% | – | 1% | 15% | 1% | Q4 | –
CCCOc1ccc(C(=O)OCCN(CC)CC)cc1N [Proparacaine] | – | – | 1% | 0% | Q4 | – | – | – | – | inhibition at 10 µM [2, 10]: -6%; inhibition at 10 µM ([5]; 48 h): 13%
CC(CCc1ccc(O)cc1)NCCc1ccc(O)c(O)c1 (stereo not shown) [Dobutamine] | 1% | Q4 | – | 0% | – | – | – | – | – | Fibrin % inhibition ([2]; compounds at 10 μM, 10 µM): −29%; LPS % inhibition [5, 12]: −7%
CC(=O)NCCCS(=O)(=O)[O-].CC(=O)NCCCS(=O)(=O)[O-].[Ca+2] [Acamprosate Calcium] | – | – | – | – | – | – | – | 1% | Q4 | Fibrin % inhibition ([2]; compounds at 10 μM): 12%; LPS % cell toxicity (primary rat microglia [3]): 0%; LPS % inhibition [5, 8]: 22%
Cn1c(=O)c2c(ncn2CC(O)CO)n(C)c1=O (stereo not shown) [Dyphylline] | 0% | Q4 | – | 0% | – | -7% | -6% | – | – | –
CC(O)Cn1cnc2c1c(=O)n(C)c(=O)n2C (stereo not shown) [Proxyphylline] | – | – | 1% | 0% | Q4 | – | – | – | – | inhibition at 10 µM [2, 10]: -21%; inhibition at 10 µM ([5]; 48 h): 11%
CC[C@H](C)C(=O)O[C@H]1C[C@H](O)C=C2C=C[C@H](C)[C@H](CC[C@@H](O)C[C@@H](O)CC(=O)O)[C@H]21 [Pravastatin] | – | – | 1% | 0% | Q4 | – | – | – | – | Fibrin % inhibition [2, 10]: 10%; inhibition at 10 µM ([5]; 48 h): 10%
